Entries after “also recorded” stand apart in the source; their conditions may differ.
Tests used:
Assay type in all cases: cell-based, Hepatitis C virus (HCV)
[1] = system: JFH-1; assay: Infectivity of intracellular virus from naringenin-treated cells; settings: standard cell-free infection of naïve Huh7-1 cells
Description: To determine the nature of the intracellular JFH-1 virion particles which are able to spread from cell-to-cell, even in the absence of secretion, the buoyant density of the accumulated, intracellular particles from naringenin-treated cells were analyzed on iodixanol gradients. It was observed that the peak of RNA from these cells was shifted towards the heavier fractions consistent with the intracellular particles in naringenin-treated cells being less lipidated. Infectivity of the intracellular virus from naringenin-treated cells was reduced by more than 95% in a standard cell-free virus infection of naïve Huh7-1 cells.

[2] = system: HCV genotype 2a subgenomic replicon; assay: HCV sg2a replicon RNA replication in Huh7 cells, RT-qPCR; settings: 72 hours post-treatment
Excerpt: Huh7 cells, also known as Huh7/scr cells, are well-known in the art (Zhong, et al. (2005) Proc. Natl. Acad. Sci. USA 102, 9294-99; Gastaminza, et al. (2006) J. Virol. 80:11074-81; Zhong, et al. (2006) J. Virol. 80:11082-93; Sainz et al. (2009) PLoS ONE 4:e6561). […] The HCV sg2a replicon was established as previously described (Uprichard, et al. (2006) Virol. J. 3:89). Briefly the HCV genotype 2a subgenomic replicon RNA (psgJFH1; Kato, et al. (2003) Gastroenterology 125:1808-17) was XbaI linearized, in vitro transcribed using […] T7 (Ambion, Austin, Tex.) and transfected into cells using a modified electroporation protocol (Krieger, et al. (2001) J. Virol. 75(10):4614-24). All cells were cultured in complete Dulbecco's modified Eagle's medium (cDMEM) (Hyclone, Logan, Utah) supplemented with 10% fetal bovine serum (FBS) (Hyclone), 100 units/ml penicillin, […] streptomycin, and 2 mM L-glutamine (Gibco Invitrogen, Carlsbad, Calif.) and 500 μg/ml geneticin ((Invitrogen) for HCV replicon cells only).
Total cellular RNA was purified using an ABI PRISM™ 6100 Nucleic Acid PrepStation (Applied Biosystems), as per the manufacturer's instructions. […] HCV JFH-1 and human GAPDH RNA transcript levels were determined relative to a standard curve derived from serial dilutions of plasmid containing the JFH-1 HCV cDNA or the human GAPDH coding sequence, respectively. […]

[3] = system: wild-type HCVcc^JFH-1; assay: Infection of Huh7 cells with wild-type HCVcc JFH-1, intracellular HCV RNA; settings: 30 μM, 48 hours post-infection
Description: (§1) Studies have shown that a G451R mutation in the viral envelope glycoprotein (E2) results in HCV virions of […] density and faster infection kinetics (thong, et al. (2006) J. Virol. 80:11082-11093). […] Thus, if ezetimibe was blocking HCV entry via an SR-B1 mediated mechanism, it would be expected that the mutant G451R virus would be less susceptible to the effects of ezetimibe. As a result, experiments were performed to assess the antiviral efficacy of ezetimibe against the SR-B1-independent HCVcc^G451R virus. Monolayers of Huh7 cells were inoculated with either wild-type HCVcc^JFH-1 or HCVcc^G451R at an MOI of 0.01 FFU/cell for 12 hours. Ezetimibe treatment at concentrations of 15 or 30 μM was initiated (and then continued) either 6 hours prior to infection, during the 12 hour incubation of the virus on the cells, or immediately following the 12 hour viral inoculation period. Ezetimibe at a concentration of 30 μM inhibited HCVcc^JFH-1 infection approximately 10-fold at 48 hours post-infection.

[4] = system: HCVcc^G451R; assay: Infection of Huh7 cells with SR-B1-independent HCVcc G451R, intracellular HCV RNA
Description: as §1

Which “reduction of infectivity of intracellular virus” value [1] does the source give for `O=C1C[C@@H](c2ccc(O)cc2)Oc2cc(O)cc(O)c21` [naringenin] here?
The value was “more than 95%”.

Which “sg2a HCV RNA levels” value [2] does the source give for `O=C1[C@H](CC[C@H](O)c2ccc(F)cc2)[C@@H](c2ccc(O)cc2)N1c1ccc(F)cc1` [ezetimibe, 1-(4-fluorophenyl)-(3R)-[3-(4-fluorophenyl)-(3S)-hydroxypropyl]-(45)-(4-hydroxyphenyl)-2-azetidinone] here?
The value was “did not inhibit HCV subgenomic RNA replication; also recorded: no significant reduction”.

What about the “inhibition of HCVcc JFH-1 infection” value [3] of the same compound?
Its value is “approximately 10 fold”.

And the infection blocked [4]?
Its infection blocked is about 100%.
